Experiment [1] has as its target T1, Serine/threonine-protein kinase TNNI3K (Homo sapiens, UniProt Q59H18).
T1 sequence (Q59H18 whole entry): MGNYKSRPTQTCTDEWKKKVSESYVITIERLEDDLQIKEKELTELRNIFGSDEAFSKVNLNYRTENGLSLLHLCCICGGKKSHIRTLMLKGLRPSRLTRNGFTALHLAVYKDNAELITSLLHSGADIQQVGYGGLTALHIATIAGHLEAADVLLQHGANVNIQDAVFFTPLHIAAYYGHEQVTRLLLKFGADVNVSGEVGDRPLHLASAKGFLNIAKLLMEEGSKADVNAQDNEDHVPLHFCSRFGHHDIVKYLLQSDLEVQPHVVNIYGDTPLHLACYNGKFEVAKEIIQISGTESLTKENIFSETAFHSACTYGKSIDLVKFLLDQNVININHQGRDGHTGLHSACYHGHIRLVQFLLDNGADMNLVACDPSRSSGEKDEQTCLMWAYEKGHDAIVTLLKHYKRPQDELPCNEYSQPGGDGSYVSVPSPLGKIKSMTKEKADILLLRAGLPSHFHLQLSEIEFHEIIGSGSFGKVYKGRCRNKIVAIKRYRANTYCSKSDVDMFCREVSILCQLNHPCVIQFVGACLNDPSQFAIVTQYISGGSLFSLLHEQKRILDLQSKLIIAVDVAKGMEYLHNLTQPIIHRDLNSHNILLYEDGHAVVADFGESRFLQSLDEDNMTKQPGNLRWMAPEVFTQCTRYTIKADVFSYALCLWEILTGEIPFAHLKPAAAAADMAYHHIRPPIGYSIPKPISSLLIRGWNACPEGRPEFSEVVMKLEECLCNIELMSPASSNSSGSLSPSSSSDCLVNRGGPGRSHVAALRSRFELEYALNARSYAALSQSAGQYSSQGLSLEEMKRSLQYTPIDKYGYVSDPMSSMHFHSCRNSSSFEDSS
Kind of experiment: Displacement of 5-({[2-({[3-({4-[(5-hydroxy-2-methylphenyl)amino]-2-pyrimidinyl}amino)phenyl]carbonyl}amino)-ethyl]amino}carbonyl)-2-(6-hydroxy-3-oxo-3H-xanthen-9-yl)benzoic acid from His6-MBP-TEV-full length human TNNI3K expressed in Baculovirus expression system after 60 mins by fluorescence polarization assay.

Experiment [2] deals with Serine/threonine-protein kinase B-raf (Homo sapiens, UniProt P15056, V600E). The experiment can be described thus: Inhibition of His6-tagged full length BRAF V600E mutant (2 to 766 residues) (unknown origin) expressed in Baculovirus expression system by BRAMA method.
Serine/threonine-protein kinase B-raf, sequence (P15056 2-766 V600E limits assumed): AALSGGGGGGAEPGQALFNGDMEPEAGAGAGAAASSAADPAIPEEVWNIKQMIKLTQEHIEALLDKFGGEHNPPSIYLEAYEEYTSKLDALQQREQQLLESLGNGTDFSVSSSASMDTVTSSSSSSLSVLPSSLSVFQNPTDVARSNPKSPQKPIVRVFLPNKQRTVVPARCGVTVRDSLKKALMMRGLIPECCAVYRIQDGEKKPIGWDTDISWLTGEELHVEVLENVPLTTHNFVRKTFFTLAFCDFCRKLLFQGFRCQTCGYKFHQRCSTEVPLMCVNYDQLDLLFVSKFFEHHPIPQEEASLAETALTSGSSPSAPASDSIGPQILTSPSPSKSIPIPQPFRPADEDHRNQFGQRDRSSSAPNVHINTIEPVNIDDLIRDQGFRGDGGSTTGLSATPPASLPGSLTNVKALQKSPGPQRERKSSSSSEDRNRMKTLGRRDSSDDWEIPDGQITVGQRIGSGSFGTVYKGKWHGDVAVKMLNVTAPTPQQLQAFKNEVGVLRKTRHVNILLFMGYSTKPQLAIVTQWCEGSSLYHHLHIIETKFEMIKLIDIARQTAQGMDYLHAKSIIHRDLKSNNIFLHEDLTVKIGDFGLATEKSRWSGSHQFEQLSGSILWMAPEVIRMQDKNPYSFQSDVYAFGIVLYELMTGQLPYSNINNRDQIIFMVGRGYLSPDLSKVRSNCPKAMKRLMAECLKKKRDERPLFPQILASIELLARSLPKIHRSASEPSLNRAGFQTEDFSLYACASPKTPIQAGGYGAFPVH

Drawing on ChEMBL document CHEMBL3860108, “Substituent Effects on Drug-Receptor H-bond Interactions: Correlations Useful for the Design of Kinase Inhibitors” (J Med Chem, 2016), this text covers IC50 for 48 compounds.

SMILES strings stand for the structures.

In the case of `CCNc1ccc(S(=O)(=O)NC)cc1Nc1ncnc2[nH]ccc12`, the IC50 (in general, the point on the concentration scale where inhibition reaches its midpoint) in experiment [1] was found to be 2500 nM.

The compound `CNS(=O)(=O)c1ccc(N(C)C)c(Nc2cc(Nc3ccc(Cl)cc3)ncn2)c1` gave an IC50 in experiment [1] of 80 nM. This IC50 lies about 31-fold lower than the previous one.

Turning to `CNS(=O)(=O)c1ccc(N(C)C)c(Nc2ncnc3[nH]cc(-c4ccco4)c23)c1`, in experiment [1], the half-inhibitory concentration (IC50) was below 10 nM.

In the case of `CNS(=O)(=O)c1ccc(OCC(F)(F)F)c(Nc2cc(Nc3ccc(Cl)cc3)ncn2)c1`, the IC50 in experiment [1] amounted to 25 nM. This lies in the double-digit nanomolar range.

For `CNS(=O)(=O)c1ccc(F)c(Nc2ncnc3[nH]ccc23)c1`, in experiment [1], the IC50 worked out at 250 nM. This IC50 is about 10-fold higher than that of the compound before.

`CNS(=O)(=O)c1ccc(C)c(Nc2cc(Nc3ccc(Cl)cc3)ncn2)c1` returned a half-maximal inhibitory concentration (IC50) in experiment [1] of 160 nM.

On to `CNS(=O)(=O)c1ccc(N2CCC(F)(F)C2)c(Nc2ncnc3[nH]ccc23)c1`, for which the concentration for half-maximal inhibition (IC50) in experiment [1] is 130 nM.

Compound `CNS(=O)(=O)c1ccc(-c2ccccc2)c(Nc2ncnc3[nH]ccc23)c1` showed a half-maximal inhibitory concentration (IC50) in experiment [1] of 200 nM.

Regarding `CNS(=O)(=O)c1ccc(N2C(C)CCC2C)c(Nc2ncnc3[nH]ccc23)c1` (stereo not given), the IC50 in experiment [1] was determined as 20 nM.

Regarding `CNS(=O)(=O)c1ccc(N(C)C)c(Nc2ncnc(Nc3ccc(Cl)cc3)n2)c1`, in experiment [1], the IC50 was 10 nM.

Turning to `CNS(=O)(=O)c1ccc(N(C)C)c(Nc2ncnc3ccc([N+](=O)[O-])cc23)c1`, the 50% inhibitory concentration (IC50) in experiment [1] came out at 2500 nM; in experiment [2], 6300 nM.

As for `CNS(=O)(=O)c1ccc(N2C(C)CCC2C)c(Nc2cc(Nc3ccc(Cl)cc3)ncn2)c1` (stereo not given), the IC50 in experiment [1] was found to be 80 nM.

As for `CNS(=O)(=O)c1ccc(F)c(Nc2cc(Nc3ccc(Cl)cc3)ncn2)c1`, the IC50 in experiment [1] turned out to be 200 nM.

Compound `CNS(=O)(=O)c1ccc(N2CCCC2C)c(Nc2ncnc3[nH]ccc23)c1` (stereo not given) returned a 50% inhibitory concentration (IC50) in experiment [1] of 130 nM.

In experiment [1], `CNS(=O)(=O)c1ccc(OCC(F)(F)F)c(Nc2ncnc3[nH]ccc23)c1` registered a half-maximal inhibitory concentration (IC50) of 16 nM.

`CNS(=O)(=O)c1cccc(Nc2cc(Nc3ccc(Cl)cc3)ncn2)c1`: in experiment [1], the IC50 was found to be 80 nM.

In experiment [1], `CNS(=O)(=O)c1ccc(N2CCCC2C)c(Nc2cc(Nc3ccc(Cl)cc3)ncn2)c1` (stereo not given) registered an IC50 of 250 nM.

In turn, `CNS(=O)(=O)c1ccc(N(C)C)c(Nc2ncnc3[nH]cnc23)c1` displayed a half-inhibitory concentration (IC50) in experiment [1] of 16 nM.

Take `CNS(=O)(=O)c1ccc(N)c(Nc2cc(Nc3ccc(Cl)cc3)ncn2)c1`: in experiment [1], the concentration for half-maximal inhibition (IC50) was 800 nM.

With `CNS(=O)(=O)c1ccc(SC)c(Nc2ncnc3[nH]ccc23)c1`, in experiment [1], the IC50 stood at 130 nM. This IC50 lies about 6.2-fold lower than the previous one.

On to `CNS(=O)(=O)c1ccc(N2CCCC(F)(F)C2)c(Nc2ncnc3[nH]ccc23)c1`, for which, in experiment [1], the IC50 was below 10 nM.

Compound `CNS(=O)(=O)c1ccc(N(C)C)c(Nc2ncnc3ncccc23)c1` came in with an IC50 in experiment [1] of 5000 nM.

In experiment [1], `CCCNc1ccc(S(=O)(=O)NC)cc1Nc1cc(Nc2ccc(Cl)cc2)ncn1` displayed an IC50 of 1600 nM.

In turn, `CNS(=O)(=O)c1ccc(N2CCC[C@@H]2C(F)(F)F)c(Nc2cc(Nc3ccc(Cl)cc3)ncn2)c1` registered an IC50 in experiment [1] of 63 nM. This IC50 is about 25-fold lower than that of the compound before.

In the case of `CNS(=O)(=O)c1ccc(N2CCC(F)(F)C2)c(Nc2cc(Nc3ccc(Cl)cc3)ncn2)c1`, in experiment [1], the half-inhibitory concentration (IC50) is 1000 nM.

As for `CNS(=O)(=O)c1ccc(O)c(Nc2ncnc3[nH]ccc23)c1`, the concentration for half-maximal inhibition (IC50) in experiment [1] turned out to be 40 nM. Compared with the last compound, the IC50 is about 25-fold lower.

On to `CNS(=O)(=O)c1ccc(OC(F)(F)F)c(Nc2cc(Nc3ccc(Cl)cc3)ncn2)c1`, for which the IC50 in experiment [1] is 32 nM.

Compound `CNS(=O)(=O)c1ccc(Cl)c(Nc2cc(Nc3ccc(Cl)cc3)ncn2)c1` showed an IC50 in experiment [1] of 130 nM.

In experiment [1], `CNS(=O)(=O)c1ccc(N2CCCC2)c(Nc2cc(Nc3ccc(Cl)cc3)ncn2)c1` yielded an IC50 of 1300 nM.

In the case of `CNS(=O)(=O)c1ccc(SC)c(Nc2cc(Nc3ccc(Cl)cc3)ncn2)c1`, the IC50 in experiment [1] turned out to be 400 nM.

Compound `CNS(=O)(=O)c1ccc(OC(F)(F)F)c(Nc2ncnc3[nH]ccc23)c1` displayed a 50% inhibitory concentration (IC50) in experiment [1] of 50 nM.

Consider `CNS(=O)(=O)c1ccc(N(C)C)c(Nc2ncnc3ccc(Cl)cc23)c1`, for which the IC50 in experiment [1] and in experiment [2] was 400 nM throughout.

In experiment [1], `CNS(=O)(=O)c1ccc(N2CCCCC2)c(Nc2ncnc3[nH]ccc23)c1` returned an IC50 of 13 nM.

`CCN(C)c1ccc(S(=O)(=O)NC)cc1Nc1cc(Nc2ccc(Cl)cc2)ncn1`: the IC50 in experiment [1] was determined as 63 nM.

Regarding `CCN(C)c1ccc(S(=O)(=O)NC)cc1Nc1ncnc2[nH]ccc12`, the IC50 in experiment [1] is 32 nM.

Compound `CCOc1ccc(S(=O)(=O)NC)cc1Nc1cc(Nc2ccc(Cl)cc2)ncn1` displayed an IC50 in experiment [1] of 50 nM.

`CNS(=O)(=O)c1ccc(N(C)C)c(Nc2ncnc3[nH]c4ccccc4c23)c1` registered a 50% inhibitory concentration (IC50) in experiment [1] of 50 nM.

`CCNc1ccc(S(=O)(=O)NC)cc1Nc1cc(Nc2ccc(Cl)cc2)ncn1`: the half-maximal inhibitory concentration (IC50) in experiment [1] is 3200 nM.

In experiment [1], `CNS(=O)(=O)c1ccc(N2CCCC2)c(Nc2ncnc3[nH]ccc23)c1` gave a half-maximal inhibitory concentration (IC50) of 320 nM.

`CNS(=O)(=O)c1ccc(OC)c(Nc2ncnc3[nH]ccc23)c1` showed a concentration for half-maximal inhibition (IC50) in experiment [1] of 100 nM. This IC50 is about 3.2-fold lower than that of the compound before.

`CNS(=O)(=O)c1ccc(N2CCCC(F)(F)C2)c(Nc2cc(Nc3ccc(Cl)cc3)ncn2)c1` displayed a concentration for half-maximal inhibition (IC50) in experiment [1] of 40 nM.

`CNS(=O)(=O)c1ccc(OC)c(Nc2cc(Nc3ccc(Cl)cc3)ncn2)c1` yielded a 50% inhibitory concentration (IC50) in experiment [1] of 50 nM.

With `CCOc1ccc(S(=O)(=O)NC)cc1Nc1ncnc2[nH]ccc12`, the IC50 in experiment [1] was determined as 32 nM.

For the compound `CCCNc1ccc(S(=O)(=O)NC)cc1Nc1ncnc2[nH]ccc12`, in experiment [1], the half-maximal inhibitory concentration (IC50) is 2500 nM.

Take `CNc1ccc(S(=O)(=O)NC)cc1Nc1cc(Nc2ccc(Cl)cc2)ncn1`: in experiment [1], the half-maximal inhibitory concentration (IC50) was 2500 nM. That is a single-digit micromolar value.

The compound `CNS(=O)(=O)c1ccc(N(C)CC(F)(F)F)c(Nc2cc(Nc3ccc(Cl)cc3)ncn2)c1` showed an IC50 in experiment [1] of 40 nM.

Take `CNS(=O)(=O)c1ccc(O)c(Nc2cc(Nc3ccc(Cl)cc3)ncn2)c1`: the half-inhibitory concentration (IC50) in experiment [1] is 160 nM.

In experiment [1], `CNS(=O)(=O)c1ccc(N(C)CC(F)(F)F)c(Nc2ncnc3[nH]ccc23)c1` returned an IC50 of 10 nM.
